By IC50 is commonly meant the concentration at which inhibition is half-maximal. High values mean weaker potency, low ones greater potency. What is called Ki is a dissociation constant, usually derived from enzyme kinetics or from competition with a known ligand. Read a high Ki as weaker binding.

SMILES strings stand for the structures. “And” between values parts separate entries of the source, which are not always exact repeats. Identical values can stand only once. Bounds are passed on as bounds.

We go through 39 compounds from the Kinase Knowledgebase extract (Sharma et al. 2016).

The target in assay [1] is MAPK14 (murine). Nature of the assay: Inhibition of MAPK14 Kinase Activity.
Assay [2] deals with PIK3CG (human) (UniProt P48736). Nature of the assay: Enzyme Assay.
Sequence of PIK3CG (human) (P48736 whole entry, looked up): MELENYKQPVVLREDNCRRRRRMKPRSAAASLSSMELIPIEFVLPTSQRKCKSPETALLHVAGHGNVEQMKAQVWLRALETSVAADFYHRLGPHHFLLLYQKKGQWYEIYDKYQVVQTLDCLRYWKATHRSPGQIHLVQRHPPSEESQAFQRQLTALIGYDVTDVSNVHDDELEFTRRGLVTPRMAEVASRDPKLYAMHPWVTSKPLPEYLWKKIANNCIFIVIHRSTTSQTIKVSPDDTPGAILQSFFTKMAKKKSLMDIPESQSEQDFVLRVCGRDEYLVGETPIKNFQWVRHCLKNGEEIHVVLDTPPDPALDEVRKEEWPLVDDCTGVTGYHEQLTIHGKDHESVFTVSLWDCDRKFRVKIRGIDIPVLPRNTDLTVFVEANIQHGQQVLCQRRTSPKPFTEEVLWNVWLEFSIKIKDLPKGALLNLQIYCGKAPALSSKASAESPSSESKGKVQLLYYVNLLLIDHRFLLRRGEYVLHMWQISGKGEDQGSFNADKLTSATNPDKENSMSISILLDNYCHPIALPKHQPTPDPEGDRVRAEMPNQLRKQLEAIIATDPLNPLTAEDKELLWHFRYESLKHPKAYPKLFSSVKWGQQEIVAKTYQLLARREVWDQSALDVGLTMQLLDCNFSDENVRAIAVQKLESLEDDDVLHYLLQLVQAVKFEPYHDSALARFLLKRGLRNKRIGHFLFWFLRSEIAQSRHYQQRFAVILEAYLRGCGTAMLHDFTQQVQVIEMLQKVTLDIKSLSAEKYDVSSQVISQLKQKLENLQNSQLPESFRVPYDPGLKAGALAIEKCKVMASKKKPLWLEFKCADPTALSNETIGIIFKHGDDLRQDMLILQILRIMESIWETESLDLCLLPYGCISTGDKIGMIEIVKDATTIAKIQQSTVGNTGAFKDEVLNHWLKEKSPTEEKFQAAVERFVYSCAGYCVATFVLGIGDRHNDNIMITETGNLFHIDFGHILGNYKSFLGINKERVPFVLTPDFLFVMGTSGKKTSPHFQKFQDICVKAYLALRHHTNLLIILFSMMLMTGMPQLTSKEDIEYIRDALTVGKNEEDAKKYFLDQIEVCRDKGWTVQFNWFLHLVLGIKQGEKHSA
Assay [3] deals with PIK3CA (human) (UniProt P42336). As to the kind of experiment: Enzyme Assay.
Sequence of PIK3CA (human) (P42336 whole entry, looked up): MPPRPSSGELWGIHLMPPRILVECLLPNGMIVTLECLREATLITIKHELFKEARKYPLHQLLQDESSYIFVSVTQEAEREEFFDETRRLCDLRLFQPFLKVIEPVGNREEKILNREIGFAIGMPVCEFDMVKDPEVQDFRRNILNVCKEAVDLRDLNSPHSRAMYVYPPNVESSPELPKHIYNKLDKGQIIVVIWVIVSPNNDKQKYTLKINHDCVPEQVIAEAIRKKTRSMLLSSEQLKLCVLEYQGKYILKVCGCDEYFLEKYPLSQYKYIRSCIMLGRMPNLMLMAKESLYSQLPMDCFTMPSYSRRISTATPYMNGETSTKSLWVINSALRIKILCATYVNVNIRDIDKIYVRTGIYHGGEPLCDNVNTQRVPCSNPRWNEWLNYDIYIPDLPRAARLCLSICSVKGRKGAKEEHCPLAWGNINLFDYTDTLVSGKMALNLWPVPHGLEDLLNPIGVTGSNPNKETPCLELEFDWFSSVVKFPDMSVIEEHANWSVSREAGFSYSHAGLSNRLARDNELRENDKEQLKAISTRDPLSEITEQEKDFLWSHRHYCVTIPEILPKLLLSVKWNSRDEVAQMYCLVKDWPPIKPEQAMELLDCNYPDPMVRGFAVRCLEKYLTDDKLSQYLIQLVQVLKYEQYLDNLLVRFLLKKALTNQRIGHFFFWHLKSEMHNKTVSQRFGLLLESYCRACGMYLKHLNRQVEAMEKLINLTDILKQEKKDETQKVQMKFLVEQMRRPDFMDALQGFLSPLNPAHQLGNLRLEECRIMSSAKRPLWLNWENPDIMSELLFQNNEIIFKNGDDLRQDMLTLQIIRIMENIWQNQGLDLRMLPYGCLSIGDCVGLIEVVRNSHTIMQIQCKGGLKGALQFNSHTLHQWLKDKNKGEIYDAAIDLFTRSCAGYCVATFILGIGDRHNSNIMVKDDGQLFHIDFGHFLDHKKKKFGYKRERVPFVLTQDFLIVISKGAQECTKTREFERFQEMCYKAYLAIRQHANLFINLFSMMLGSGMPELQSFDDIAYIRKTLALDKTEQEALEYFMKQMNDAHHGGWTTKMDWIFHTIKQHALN
In assay [4] the target is PIK3CD (Human) (UniProt O00329). Nature of the assay: Enzyme Assay.
Sequence of PIK3CD (Human) (O00329 whole entry, looked up): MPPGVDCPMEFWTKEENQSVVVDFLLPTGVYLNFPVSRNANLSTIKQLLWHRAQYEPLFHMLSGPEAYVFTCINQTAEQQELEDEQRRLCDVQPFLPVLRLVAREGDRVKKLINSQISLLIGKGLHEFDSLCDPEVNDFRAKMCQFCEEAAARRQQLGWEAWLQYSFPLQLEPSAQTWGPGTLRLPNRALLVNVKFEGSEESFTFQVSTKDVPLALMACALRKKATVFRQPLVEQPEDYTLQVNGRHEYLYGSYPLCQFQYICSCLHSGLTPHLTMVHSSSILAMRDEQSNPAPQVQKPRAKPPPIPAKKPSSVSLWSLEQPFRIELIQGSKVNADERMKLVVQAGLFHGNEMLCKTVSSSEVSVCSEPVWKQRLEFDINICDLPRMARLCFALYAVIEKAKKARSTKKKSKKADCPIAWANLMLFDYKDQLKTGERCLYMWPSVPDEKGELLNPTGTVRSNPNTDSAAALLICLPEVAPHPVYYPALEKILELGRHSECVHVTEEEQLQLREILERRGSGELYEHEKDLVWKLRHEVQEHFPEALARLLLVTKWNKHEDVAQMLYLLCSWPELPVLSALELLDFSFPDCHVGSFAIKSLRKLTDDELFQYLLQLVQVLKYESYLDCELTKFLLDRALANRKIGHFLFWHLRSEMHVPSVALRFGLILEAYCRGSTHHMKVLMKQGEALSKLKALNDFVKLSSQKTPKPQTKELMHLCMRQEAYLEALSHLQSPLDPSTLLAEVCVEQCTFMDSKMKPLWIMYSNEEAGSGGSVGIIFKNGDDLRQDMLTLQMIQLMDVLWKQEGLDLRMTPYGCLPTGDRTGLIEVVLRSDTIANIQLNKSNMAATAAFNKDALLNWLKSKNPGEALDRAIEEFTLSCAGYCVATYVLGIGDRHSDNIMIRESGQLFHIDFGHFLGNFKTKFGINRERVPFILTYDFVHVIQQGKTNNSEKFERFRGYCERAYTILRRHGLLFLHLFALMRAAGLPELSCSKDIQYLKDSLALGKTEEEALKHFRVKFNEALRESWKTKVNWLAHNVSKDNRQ
For assay [5], the target named is PIK3CB;PIK3CG;PIK3CD;PIK3CA (human) (UniProt P48736). As to the kind of experiment: Inhibition of PIK3 Kinase Activity.
Assay [6] has as its target ROCK2 (human) (UniProt O75116). As to the kind of experiment: Enzyme Assay. The note with it: for activity: concentration not given here.
Assay [7] deals with CDK2 (human) (UniProt P24941). Nature of the assay: Cell-Based Assay.
In assay [8] the target is CDK2 (human) (UniProt P24941). Nature of the assay: Enzyme Assay.
The target of assay [9] is PIK3CD (Human) (UniProt O00329). As to the kind of experiment: Assessment of PIK3CD Kinase Activity.
Assay [10] has as its target MAPK14 (UniProt Q16539). As to the kind of experiment: p38 Inhibition.
Assay [11] has as its target PIK3CG (human) (UniProt P48736). Nature of the assay: Assessment of PIK3CG Kinase Activity.
The target in assay [12] is MAPK14 (human) (UniProt Q16539). As to the kind of experiment: Enzyme Assay. To be noted: concentration not given here.
Sequence of MAPK14 (human) (Q16539 whole entry, looked up): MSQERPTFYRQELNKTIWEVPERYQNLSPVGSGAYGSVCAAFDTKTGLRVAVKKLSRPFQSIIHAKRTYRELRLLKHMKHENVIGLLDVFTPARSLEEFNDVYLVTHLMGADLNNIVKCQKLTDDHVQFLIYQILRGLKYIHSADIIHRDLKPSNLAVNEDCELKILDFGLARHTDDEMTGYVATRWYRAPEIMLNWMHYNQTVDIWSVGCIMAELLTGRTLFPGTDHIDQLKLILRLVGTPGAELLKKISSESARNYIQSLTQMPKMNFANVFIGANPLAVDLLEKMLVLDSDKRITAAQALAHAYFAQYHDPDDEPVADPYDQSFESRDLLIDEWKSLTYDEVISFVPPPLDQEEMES

Sequence of ROCK2 (human) (O75116 whole entry, looked up): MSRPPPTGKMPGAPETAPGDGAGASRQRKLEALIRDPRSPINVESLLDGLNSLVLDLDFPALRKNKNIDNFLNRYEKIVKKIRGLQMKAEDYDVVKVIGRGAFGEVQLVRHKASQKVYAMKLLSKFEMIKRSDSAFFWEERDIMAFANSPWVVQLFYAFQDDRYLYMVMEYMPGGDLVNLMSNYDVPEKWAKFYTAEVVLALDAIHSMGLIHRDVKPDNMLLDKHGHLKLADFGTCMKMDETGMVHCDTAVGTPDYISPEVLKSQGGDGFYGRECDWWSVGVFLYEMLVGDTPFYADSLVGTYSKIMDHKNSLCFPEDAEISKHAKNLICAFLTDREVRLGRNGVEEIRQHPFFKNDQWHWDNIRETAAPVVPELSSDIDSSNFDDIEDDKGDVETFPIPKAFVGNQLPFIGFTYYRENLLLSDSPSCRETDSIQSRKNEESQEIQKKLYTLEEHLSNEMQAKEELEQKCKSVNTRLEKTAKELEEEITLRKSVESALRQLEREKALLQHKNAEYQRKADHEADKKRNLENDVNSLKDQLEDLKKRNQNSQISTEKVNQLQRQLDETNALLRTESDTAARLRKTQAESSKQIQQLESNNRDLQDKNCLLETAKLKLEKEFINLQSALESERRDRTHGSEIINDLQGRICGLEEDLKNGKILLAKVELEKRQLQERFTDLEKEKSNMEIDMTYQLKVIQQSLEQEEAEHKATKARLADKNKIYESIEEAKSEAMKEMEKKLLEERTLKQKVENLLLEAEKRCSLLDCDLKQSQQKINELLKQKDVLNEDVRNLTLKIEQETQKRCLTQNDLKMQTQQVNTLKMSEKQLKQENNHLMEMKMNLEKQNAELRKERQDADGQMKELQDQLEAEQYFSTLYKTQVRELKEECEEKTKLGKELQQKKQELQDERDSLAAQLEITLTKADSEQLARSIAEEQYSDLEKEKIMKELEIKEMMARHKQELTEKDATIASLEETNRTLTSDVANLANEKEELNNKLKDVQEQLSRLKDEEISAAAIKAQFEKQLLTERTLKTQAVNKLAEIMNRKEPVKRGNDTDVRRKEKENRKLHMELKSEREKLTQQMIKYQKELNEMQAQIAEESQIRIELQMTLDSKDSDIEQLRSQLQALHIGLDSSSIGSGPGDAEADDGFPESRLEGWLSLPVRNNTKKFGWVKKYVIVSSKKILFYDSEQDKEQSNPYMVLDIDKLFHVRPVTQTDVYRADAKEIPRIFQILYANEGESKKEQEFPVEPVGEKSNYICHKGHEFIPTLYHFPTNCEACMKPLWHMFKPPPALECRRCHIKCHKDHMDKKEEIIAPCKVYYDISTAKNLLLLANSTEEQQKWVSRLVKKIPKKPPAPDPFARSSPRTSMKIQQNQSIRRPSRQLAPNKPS
Sequence of MAPK14 (Q16539 whole entry, looked up): as the sequence (Q16539 whole entry, looked up) above

`O=c1ccn2nc(NCc3ccc(F)cc3F)ccc2c1-c1c(F)cccc1F` showed a concentration for half-maximal inhibition (IC50) in [1] of 710 nM. Turning to `Cn1c(=O)n(-c2ccc(C(C)(C)C#N)cc2)c2c3cc(C#Cc4cccnc4)ccc3ncc21`, the IC50 in assay [2] stood at 350 nM; in assay [3], 71 nM; in assay [4], 35 nM.

Regarding `CC(C)C(=O)N1CC=C(c2cc(N3CCOCC3)nc(-c3cccc(CO)c3)n2)CC1`, the IC50 in assay [5] stood at 1000 nM. Turning to `O=C1NC(=O)C(c2c[nH]c3ccccc23)=C1c1c[nH]c2ccccc12`, the activity in [6] came out at 100%. In [6], `COCCC(=O)c1ccc(C(=O)Nc2cccc(CN3CCC(Nc4cccc5cnccc45)CC3)c2)cc1` returned a half-inhibitory concentration (IC50) below 100 nM. Still for that read-out and setting: the result for `CC(C)COC(=O)c1cccc(NC(=O)c2cccc(-c3cc(C(=O)Nc4ccncc4F)ccc3CN)c2)c1` reads 2.6 nM. Consider `O=C1NCCc2c1[nH]c1ccc(Br)cc21`, for which the IC50 amounted to 3000 nM in assay [7] (hela) and 2000 nM in assay [8].

In assay [9], `Cc1c(N2CCN(C(=O)N(C)C)CC2)nc2cc(F)cc(F)c2c1Nc1cncc(N2CCOCC2)c1C(=O)N(C)C` gave an inhibitory constant (Ki) of 81.6 nM. In [6], `COc1cc(C(=O)NCc2ccc(Cl)cc2)ccc1-c1cn[nH]c1` had a concentration for half-maximal inhibition (IC50) of 4.93 nM.

In assay [9], `Cc1c(-c2ccccc2[S+](C)[O-])nc2cc(F)cc(F)c2c1Nc1cncc(N2CCOCC2)c1` (stereo not given) returned a Ki of 3.89 nM. The compound `COCCNS(=O)(=O)c1ccc(Nc2nccc(-c3c(C)nc4cccnn34)n2)cc1` returned a 50% inhibitory concentration (IC50) in [7] (mcf-7) of 230 nM. In the case of `COc1ccc(C(=O)N2CCCC2)cc1-c1c(=O)ccn2nc(Oc3ccc(F)cc3F)ccc12`, in assay [1], the half-inhibitory concentration (IC50) came out at 22 nM.

In [1], `O=c1ccn2cc(Cc3ccc(F)cc3F)ccc2c1-c1c(F)cccc1F` showed an IC50 of 93 nM. For the compound `O=C1NCc2cc(NS(=O)(=O)c3cc(Cl)ccc3Cl)ccc2N1c1c(Cl)cccc1Cl`, the IC50 in assay [1] stood at 100 nM.

The compound `O=C(C1COCCN1)N1CC=C(c2cc(N3CCOCC3)nc(-c3cccc(CO)c3)n2)CC1` (stereo not given) had an IC50 in assay [5] of 1000 nM. In assay [9], `Cc1ncc2c(Cl)cc(C(C)Nc3ncnc4[nH]cnc34)c(-c3cccc(F)c3)n12` (stereo not given) came in with a half-maximal inhibitory concentration (IC50) of at most 50 nM. In turn, `O=C(CCCNc1ncc(C(F)(F)F)cc1Cl)NNS(=O)(=O)c1ccc(CNC(=O)c2cccc(O)c2)s1` registered an IC50 in [10] above 30000 nM. In the case of `COc1ncc(-c2ccc3nccc(-c4ccnnc4)c3c2)cc1NS(=O)(=O)c1ccc(F)cc1F`, the Ki in assay [2] amounted to 0.06 nM.

As for `CCc1cccn2c(-c3cccc(F)c3)c(C(C)Nc3ncnc4[nH]cnc34)nc12` (stereo not given), the concentration for half-maximal inhibition (IC50) in assay [9] lay within 500 to 990 nM. In turn, `Nc1cccc(CN2CC[C@@H](Nc3cccc4cnccc34)C2)c1` registered an IC50 in assay [6] of 25 nM. The same measure, in the same setting: the result for `CNC(=O)C[C@@H](NC(=O)c1ccc(-c2cn[nH]c2)c(C)c1)c1ccccc1` reads 21.7 nM. `Nc1nc2ccc(-c3cncc(NS(=O)(=O)c4cccc5ccccc45)c3)cn2n1`: the IC50 in assay [11] stood at 7.94 nM; in assay [9] it was 126 nM. The compound `NCCSc1cc(-c2ccc[nH]2)c2c3c(ccc(F)c13)NC2=O` gave a half-maximal inhibitory concentration (IC50) in [7] (rko) of 100 nM. Regarding `CC(Nc1ncnc(N)c1C#N)c1nc2ccc(F)cc2c([S+]([O-])CCO)c1-c1ccccc1` (stereo not given), the Ki in assay [9] is 1.8 nM and 2.48 nM. In assay [10], `O=c1c(-c2ccncc2)c(-c2ccc(F)cc2)[nH]n1-c1ccc(Cl)cc1` had a half-maximal inhibitory concentration (IC50) of 35 nM. That is a double-digit nanomolar value. In the case of `COc1ccc(CCN(C)C)cc1-c1n[nH]c2nc(Nc3ccc(F)cc3F)ncc12`, the concentration for half-maximal inhibition (IC50) in [1] was determined as 11 nM. In assay [2], `Nc1nc2cc(-c3nn(C4CCOCC4)c4ncnc(N)c34)ccc2o1` yielded a half-maximal inhibitory concentration (IC50) below 100 nM. In assay [7] (mcf-7), `CN(C)CCCNS(=O)(=O)c1ccc(Nc2nccc(-c3cnc4cccnn34)n2)cc1` displayed an IC50 of 430 nM. That is a sub-micromolar value.

For `C[C@H](Nc1ncnc(N)c1C(N)=O)c1nc2ccc(F)cc2c(C(=O)O)c1-c1ccccc1`, in assay [9], the Ki was 7.16 nM. `O=C(Cc1ccc(-c2ccc(C(=O)O)cc2)cc1)Nc1cc(C2CC2)[nH]n1` came in with an IC50 in assay [7] (a2780) above 20000 nM. Turning to `CO[C@H]1C[C@@H]2CC[C@@H](C)[C@@](O)(O2)C(=O)C(=O)N2CCCC[C@H]2C(=O)O[C@H]([C@H](C)C[C@@H]2CC[C@@H](O)[C@H](OC)C2)CC(=O)[C@H](C)C=C(C)[C@@H](O)[C@@H](OC)C(=O)[C@H](C)C[C@H](C)C=CC=CC=C1C`, the values for the activity in [12] and in [6] were 93% and 106%, respectively.

`CC(Nc1ncnc2[nH]cnc12)c1cc(Cl)c2cncn2c1-c1cccc(F)c1` (stereo not given) came in with an IC50 in assay [9] of at most 50 nM. `Cn1ccnc1C(=O)N1CCN(c2cc(N3CCOCC3)nc(-c3cccc(CO)c3)n2)CC1` gave a 50% inhibitory concentration (IC50) in assay [5] of 500 nM. Consider `O=C(NC1CCNCC1)C1CCN(c2cc(N3CCOCC3)nc(-c3cccc(CO)c3)n2)CC1`, for which the half-maximal inhibitory concentration (IC50) in assay [5] was 1000 nM. Consider `COc1cccc(CC(=O)Nc2cc(C3CC3)[nH]n2)c1`, for which, in [7] (a2780), the IC50 is above 20000 nM. `CS(=O)(=O)N1CC=C(c2cc(N3CCOCC3)nc(-c3cccc(CO)c3)n2)CC1` showed an IC50 in assay [5] of 500 nM. Regarding `CN[C@@H]1C[C@H]2O[C@@](C)([C@@H]1OC)n1c3ccccc3c3c4c(c5c6ccccc6n2c5c31)C(=O)N[C@@H]4O`, the activity in assay [12] stood at 92%; in assay [6], 22%. On to `COc1cccc([C@@H](C)NC(=O)c2cc3ccc(-c4cn[nH]c4)cc3[nH]2)c1`, for which, in assay [6], the 50% inhibitory concentration (IC50) stood at 1 nM. Consider `O=c1ccn2cc(Sc3ccc(F)cc3F)ccc2c1-c1c(F)cccc1F`, for which the IC50 in assay [1] worked out at 320 nM. In other words, the sub-micromolar range.
